Assay results from patent US8673366B2, “Chemotherapeutic and prophylactic pharmaceutical compositions” (priority 2004, dated 2014).
Where two headings read alike, the source gives them in different places.

Legend:
[1] = system: Escherichia coli (E. coli) strain procured from a patient; assay: MIC macrodilution (NCCLS) serial dilution; type: cell-based; design: key to growth in MIC tube: “+” denotes visually detectable growth in MIC tube.; “NG” denotes “no growth” in MIC tube; key to MIC: “NE” denotes not effective; details: for MIC: antibiotics
Procedure: (§1) Cell suspension concentration was calculated by measuring the optical density (A610) between 0.6 and 0.9.
(§2) To study efficacy, the challenge was done by determining minimum inhibitory concentration or MIC by employing serial dilutions. The minimum inhibitory concentration or MIC is defined as the minimum concentration of antibiotic that will inhibit the growth of the isolated microorganism. In its normal mode of operation, a bacterial inoculum is inoculated into tubes containing culture media and varying concentrations of the antibiotic to be tested. The tubes are incubated to allow bacterial growth. The MIC is read as the lowest concentration of biocide that inhibited bacterial growth. The interpretation of this MIC depends on the organism/biocide pair being tested, and is made following standard guidelines. MIC testing of the present compositions was conducted via a macrodilution procedure using NCCLS (National Committee for Clinical Laboratory Standards) methods for antibiotic susceptibility testing. The biological experiments were conducted by serial dilution with Muller Hinton media of ten tubes where the bacterial concentration was 10 million cells/ml in each. In addition to the “as is” samples (i.e. 100%), ten 1:1 serial dilutions of each sample were tested to determine the MIC for each sample-inoculum combination. The equivalent percentages of the dilutions are: 100, 50, 25, 12.5, 6.25, 3.125, 1.562, 0.781, 0.391, and 0.195%. These tubes were then incubated at 37±2° C. for approximately 24 hours without agitation. The tubes were then observed for presence and level of visible growth.

[2] = system: Staphylococcus aureus (S. aureus) ATCC 43300; assay: MIC macrodilution (NCCLS) serial dilution; type: cell-based; design: key to growth in MIC tube: “+” denotes visually detectable growth in MIC tube.; “NG” denotes “no growth” in MIC tube; details: for MIC: antibiotics
Procedure: as §1, §2

[3] = system: Vero (Simian Kidney Immortalized Cell Line); assay: Cytotoxic effect, Trypan Blue viable cell count after 72 hrs; type: cell-based
Procedure: (§3) Cells are plated in a 96 well flat bottom tissue culture plates at 10,000 cells/well. Dilutions and controls are added to wells as follows:
(§4) Vero Cells were grown and tested in complete Dulbeco's Modified Eagles Medium (DMEM) supplemented with 15% Fetal Bovine Serum (FBS), Gentamicine 40 μg/ml, Hepes buffer at pH=7.2, L-Glutamine 2 mM and Sodium pyruvate. MCF-7 were grown and tested in complete RPMI-1640 medium supplemented with 10% FBS Gentamicine 40 μg/ml, Hepes buffer at pH=7.2, L-Glutamine 2 mM and Sodium pyruvate. Plates were incubated in CO2 in a humidified incubator at 37° C. for 72 hrs, and then each well was harvested and counted by Trypan Blue dye exclusion method. Numbers of viable cells were counted on a hemacytometer and adjusted for concentration of cells/ml. For comparative purposes, experiments with Cisplatin ([…], MW=300), a well-known chemotherapeutic drug, at 8 and 4 μM were also conducted.

MCF-7 = details: for % Inhibition: 72 hrs
Procedure: as §3, §4
(§5) The methodology was the same as the one employed for Example 1 above.

[4] = system: BHL-89 (Human B-type EBNA negative lymphoma); details: Example 2, FIG. 3, down to dilution 1:256 (18 and 3.64 μM silver and iron)
Procedure: as §3, §4, §5

Jurkat = details: Example 2, FIG. 3, down to dilution 1:256 (18 and 3.64 μM silver and iron)
Procedure: as §3, §4, §5

T-47D = details: Example 2, FIG. 3, down to dilution 1:256 (18 and 3.64 μM silver and iron)
Procedure: as §3, §4, §5

[5] = 100% of initial, approx. 24 hours, 37°C
[6] = S. aureus (ATCC 43300), 100% of initial, approx. 24 hours, 37°C

Row | Molecule | growth in MIC tube ([1]; 0.195% of initial) | growth in MIC tube ([1]; 0.391% of initial) | growth in MIC tube ([1]; 0.781% of initial) | growth in MIC tube ([1]; 1.562% of initial) | growth in MIC tube ([1]; 3.125% of initial) | growth in MIC tube ([1]; 6.25% of initial) | growth in MIC tube ([1]; 12.5% of initial) | growth in MIC tube ([1]; 25% of initial) | growth in MIC tube ([1]; 50% of initial) | growth in MIC tube [1, 5] | growth in MIC tube [2, 6] | growth in MIC tube ([2]; S. aureus, 0.195% of initial) | growth in MIC tube ([2]; S. aureus, 0.391% of initial) | growth in MIC tube ([2]; S. aureus, 0.781% of initial) | growth in MIC tube ([2]; S. aureus, 1.562% of initial) | growth in MIC tube ([2]; S. aureus, 3.125% of initial) | growth in MIC tube ([2]; S. aureus, 6.25% of initial) | growth in MIC tube ([2]; S. aureus, 12.5% of initial) | growth in MIC tube ([2]; S. aureus, 25% of initial) | growth in MIC tube ([2]; S. aureus, 50% of initial) | further results
1 | OO [50 mM H2O2, hydrogen peroxide] | + | + | + | + | + | + | + | NG | NG | NG | + | + | + | + | + | + | + | + | + | + | –
2 | N.N.[Cl][Pt][Cl] [Cisplatin] | – | – | – | – | – | – | – | – | – | – | – | – | – | – | – | – | – | – | – | – | % Inhibition ([3]; 4 μM): no effect; % Inhibition ([3]; 4 μM, listed as CIS PLA): −7%; % Inhibition ([3]; 8 μM): 61%; % Inhibition (MCF-7; 4 μM): 72%; % Inhibition (MCF-7; 8 μM): 90%
3 | Cc1onc(-c2ccccc2)c1C(=O)N[C@@H]1C(=O)N2[C@@H]1SC(C)(C)[C@@H]2C(=O)O [OXA, Oxacillin] | + | + | + | + | + | + | + | + | + | + | NG | + | + | NG | NG | NG | NG | NG | NG | NG | MIC [1]: NE; MIC ([2]; Staphylococcus aureus, ATCC43300, S. aureus, read-out: MIC): 1.56 µg/mL
4 | O=P1(N(CCCl)CCCl)NCCCO1 (stereo not shown) [cyclophosphamide] | – | – | – | – | – | – | – | – | – | – | – | – | – | – | – | – | – | – | – | – | cytotoxic effect (in words) [4]: does not have any effects; cytotoxic effect (in words) (Jurkat): minimum effects; cytotoxic effect (in words) (MCF-7; Example 2, FIG. 3, down to dilution 1:256 (18 and 3.64 μM silver and iron)): minimum effects; cytotoxic effect (in words) (T-47D): does not have any effects
5 | Gentamicin | + | + | + | + | + | + | + | + | + | + | NG | NG | NG | NG | NG | NG | NG | NG | NG | NG | MIC [1]: NE; MIC ([2]; S. aureus): 0.391 ppm
